{"source": "patent US20230085307A1", "about": "“PYRIDAZINONE COMPOUND AND HERBICIDE” (NISSAN CHEMICAL CORPORATION, priority 2019, published 2023)", "key": {"[1]": {"tested_on": "windgrass", "assay": "Test Example 5: herbicidal effect by foliage application, plastic box (Table 20, symbol L)", "format": "in vivo, windgrass (Apera spica-venti)", "details": "foliage application, 320 g/ha, evaluated three weeks after application", "procedure,_shortened": "(§1)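 Plants were sown into sterilized diluvial soil under about 1.5 cm cover and kept in a greenhouse at 25° C. to 30° C. Fourteen days on, foliage received an even spray of the diluted emulsion. Herbicidal or crop effect was judged three weeks afterwards.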"}, "[2]": {"tested_on": "false cleavers", "assay": "Test Example 5: herbicidal effect by foliage application, plastic box (Table 20, symbol Q)", "format": "in vivo, false cleavers (Galium spurium)", "details": "foliage application, 320 g/ha", "procedure,_shortened": "as §1"}, "[3]": {"tested_on": "barnyard grass", "assay": "Test Example 3: herbicidal effect by foliage application, Wagner pot (Table 18, symbol H)", "format": "in vivo, barnyard grass (Echinochloa crus-galli)", "procedure,_shortened": "(§2)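 Plants were sown in alluvial soil held under 0.1–0.5 cm standing water and grown 14 days in a greenhouse at 25–30 °C. An emulsifiable formulation, water-diluted to the set dose, was then sprayed onto the foliage, and effects were scored three weeks later using previously defined criteria.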"}, "[4]": {"tested_on": "redroot pigweed", "assay": "Test Example 5: herbicidal effect by foliage application, plastic box (Table 20, symbol N)", "format": "in vivo, redroot pigweed (Amaranthus retroflexus)", "details": "foliage application, 320 g/ha, evaluated three weeks after application", "procedure,_shortened": "as §1"}, "[5]": {"tested_on": "Japanese bulrush", "assay": "Test Example 2: herbicidal activity, application during weed generation under submerged conditions (Table 17, symbol B)", "format": "in vivo, Japanese bulrush (Schoenoplectus juncoides)", "details": "AAH 320 g/ha; application during weed generation, submerged conditions", "procedure,_shortened": "(§3)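 3-wk visual-criteria score after one water-surface dose. Emulsion formulation, water-diluted to set rate; applied at 1–2 leaf stage; alluvial soil, 4 cm standing water; seeds co-sown; greenhouse 25–30° C.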"}, "[6]": {"tested_on": "blackgrass", "assay": "Test Example 5: herbicidal effect by foliage application, plastic box (Table 20, symbol J)", "format": "in vivo, blackgrass (Alopecurus myosuroides)", "details": "foliage application, 320 g/ha", "procedure,_shortened": "as §1"}, "[7]": {"tested_on": "southern crabgrass", "assay": "Test Example 5: herbicidal effect by foliage application, plastic box (Table 20, symbol F)", "format": "in vivo, southern crabgrass (Digitaria ciliaris)", "details": "foliage application, 320 g/ha", "procedure,_shortened": "as §1"}, "[8]": {"tested_on": "rice flat sedge", "assay": "Test Example 3: herbicidal effect by foliage application, Wagner pot (Table 18, symbol E)", "format": "in vivo, rice flat sedge (Cyperus iria)", "procedure,_shortened": "as §2"}, "[9]": {"tested_on": "Chinese sprangletop", "assay": "Test Example 3: herbicidal effect by foliage application, Wagner pot (Table 18, symbol D)", "format": "in vivo, chinese sprangletop (Leptochloa chinensis)", "procedure,_shortened": "as §2"}, "[10]": {"tested_on": "velvetleaf", "assay": "Test Example 5: herbicidal effect by foliage application, plastic box (Table 20, symbol M)", "format": "in vivo, velvetleaf (Abutilon theophrasti)", "details": "foliage application, 320 g/ha", "procedure,_shortened": "as §1"}, "[11]": {"tested_on": "oval-leafed pondweed", "assay": "Test Example 2: herbicidal activity, application during weed generation under submerged conditions (Table 17, symbol C)", "format": "in vivo, oval-leafed pondweed (Monochoria vaginalis)", "details": "AAH 320 g/ha; application during weed generation, submerged conditions", "procedure,_shortened": "as §3"}, "[12]": {"tested_on": "wild oat", "assay": "Test Example 5: herbicidal effect by foliage application, plastic box (Table 20, symbol I)", "format": "in vivo, wild oat (Avena fatua)", "details": "foliage application, 320 g/ha", "procedure,_shortened": "as §1"}, "[13]": {"tested_on": "persian speedwell", "assay": "Test Example 5: herbicidal effect by foliage application, plastic box (Table 20, symbol R)", "format": "in vivo, Persian speedwell (Veronica persica)", "details": "foliage application, 320 g/ha", "procedure,_shortened": "as §1"}, "[14]": {"tested_on": "Italian ryegrass", "assay": "Test Example 5: herbicidal effect by foliage application, plastic box (Table 20, symbol K)", "format": "in vivo, Italian ryegrass (Lolium multiflorum)", "details": "foliage application, 320 g/ha", "procedure,_shortened": "as §1"}, "[15]": {"tested_on": "green foxtail", "assay": "Test Example 5: herbicidal effect by foliage application, plastic box (Table 20, symbol G)", "format": "in vivo, green foxtail (Setaria viridis)", "details": "foliage application, 320 g/ha", "procedure,_shortened": "as §1"}, "[16]": {"tested_on": "chickweed", "assay": "Test Example 5: herbicidal effect by foliage application, plastic box (Table 20, symbol P)", "format": "in vivo, common chickweed (Stellaria media)", "details": "foliage application, 320 g/ha", "procedure,_shortened": "as §1"}, "[17]": {"tested_on": "late watergrass", "assay": "Test Example 2: herbicidal activity, application during weed generation under submerged conditions (Table 17, symbol A)", "format": "in vivo, late watergrass (Echinochloa oryzicola)", "details": "AAH 320 g/ha; application during weed generation, submerged conditions", "procedure,_shortened": "as §3"}, "[18]": {"tested_on": "lambsquarters", "assay": "Test Example 5: herbicidal effect by foliage application, plastic box (Table 20, symbol O)", "format": "in vivo, lambsquarters (Chenopodium album)", "details": "foliage application, 320 g/ha", "procedure,_shortened": "as §1"}, "[19]": {"tested_on": "barnyard grass", "assay": "Test Example 5: herbicidal effect by foliage application, plastic box (Table 20, symbol H)", "format": "in vivo, barnyard grass (Echinochloa crus-galli)", "details": "foliage application, 320 g/ha", "procedure,_shortened": "as §1"}, "[20]": {"tested_on": "late watergrass", "assay": "Test Example 1: herbicidal activity, application before weed generation under submerged conditions (Table 16, symbol A)", "format": "in vivo, late watergrass (Echinochloa oryzicola)", "details": "amount of applied herbicide 320 g/ha", "procedure,_shortened": "(§4)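 Alluvial soil was flooded to 4 cm depth, weed seeds were sown mixed and 2.5-leaf rice seedlings were transplanted. On sowing day, the compound's emulsion, diluted in water to a set dose, was applied to the water surface. Plants grew at 25–30 °C and were scored 0–5 after three weeks.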"}, "[21]": {"tested_on": "Japanese bulrush", "assay": "Test Example 1: herbicidal activity, application before weed generation under submerged conditions (Table 16, symbol B)", "format": "in vivo, Japanese bulrush (Schoenoplectus juncoides)", "details": "amount of applied herbicide 320 g/ha", "procedure,_shortened": "as §4"}, "[22]": {"tested_on": "oval-leafed pondweed", "assay": "Test Example 1: herbicidal activity, application before weed generation under submerged conditions (Table 16, symbol C)", "format": "in vivo, oval-leafed pondweed (Monochoria vaginalis)", "details": "amount of applied herbicide 320 g/ha", "procedure,_shortened": "as §4"}, "[23]": {"details": "evaluated three weeks after application"}, "[24]": {"details": "amount of applied herbicide 320 g/ha"}}}
{"molecule": "CCCC(=O)Oc1c(C)nn(C)c(=O)c1-c1c(-c2c(OC)cccc2OC)sc2ccc(Cl)cc12", "note": "[2-122]", "values": [{"measurement": "herbicidal effect on L: windgrass", "setting": "[1]", "result": "0 (Herbicidal rate of 5% or less (almost no effect))"}, {"measurement": "herbicidal effect on Q: false cleavers", "setting": "[2]; [23]", "result": "0 (Herbicidal rate of 5% or less (almost no effect))"}, {"measurement": "herbicidal effect on H: barnyard grass", "setting": "[3]; [24]", "result": "2 (Herbicidal rate of 20% or more and less than 40%)"}, {"measurement": "herbicidal effect on N: redroot pigweed", "setting": "[4]", "result": "0 (Herbicidal rate of 5% or less (almost no effect))"}, {"measurement": "herbicidal effect rating, B: Japanese bulrush", "setting": "[5]", "result": "0 (Herbicidal rate of 5% or less (almost no effect))"}, {"measurement": "herbicidal effect on J: blackgrass", "setting": "[6]; [23]", "result": "0 (Herbicidal rate of 5% or less (almost no effect))"}, {"measurement": "herbicidal effect on F: southern crabgrass", "setting": "[7]; [23]", "result": "0 (Herbicidal rate of 5% or less (almost no effect))"}, {"measurement": "herbicidal effect on E: rice flat sedge", "setting": "[8]; [24]", "result": "0 (Herbicidal rate of 5% or less (almost no effect))"}, {"measurement": "herbicidal effect on D: Chinese sprangletop", "setting": "[9]; [24]", "result": "0 (Herbicidal rate of 5% or less (almost no effect))"}, {"measurement": "herbicidal effect on M: velvetleaf", "setting": "[10]; [23]", "result": "0 (Herbicidal rate of 5% or less (almost no effect))"}, {"measurement": "herbicidal effect rating, C: oval-leafed pondweed", "setting": "[11]", "result": "2 (Herbicidal rate of 20% or more and less than 40%)"}, {"measurement": "herbicidal effect on I: wild oat", "setting": "[12]; [23]", "result": "0 (Herbicidal rate of 5% or less (almost no effect))"}, {"measurement": "herbicidal effect on R: persian speedwell", "setting": "[13]; [23]", "result": "1 (Herbicidal rate of 5% or more and less than 20%)"}, {"measurement": "herbicidal effect on K: Italian ryegrass", "setting": "[14]; [23]", "result": "0 (Herbicidal rate of 5% or less (almost no effect))"}, {"measurement": "herbicidal effect on G: green foxtail", "setting": "[15]; [23]", "result": "0 (Herbicidal rate of 5% or less (almost no effect))"}, {"measurement": "herbicidal effect on P: chickweed", "setting": "[16]; [23]", "result": "3 (Herbicidal rate of 40% or more and less than 70%)"}, {"measurement": "herbicidal effect rating, A: late watergrass", "setting": "[17]", "result": "0 (Herbicidal rate of 5% or less (almost no effect))"}, {"measurement": "herbicidal effect on O: lambsquarters", "setting": "[18]; [23]", "result": "0 (Herbicidal rate of 5% or less (almost no effect))"}, {"measurement": "herbicidal effect on H: barnyard grass", "setting": "[19]; [23]", "result": "0 (Herbicidal rate of 5% or less (almost no effect))"}]}
{"molecule": "CCCC(=O)Oc1c(C)nn(C)c(=O)c1-c1c(-c2ccc(F)cc2OC)sc2cc(C)ccc12", "note": "[3-056]", "values": [{"measurement": "Q: false cleavers, herbicidal effect grade", "setting": "[2]; three weeks after application", "result": "4 (Herbicidal rate of 70% or more and less than 90%)"}, {"measurement": "herbicidal effect on barnyard grass (H)", "setting": "[3]; 320 g/ha", "result": "3 (Herbicidal rate of 40% or more and less than 70%)"}, {"measurement": "herbicidal effect rating, B: Japanese bulrush", "setting": "[5]", "result": "0 (Herbicidal rate of 5% or less (almost no effect))"}, {"measurement": "Herbicidal effect, A: late watergrass", "setting": "[20]", "result": "3 (Herbicidal rate of 40% or more and less than 70%)"}, {"measurement": "J: blackgrass, herbicidal effect grade", "setting": "[6]; three weeks after application", "result": "2 (Herbicidal rate of 20% or more and less than 40%)"}, {"measurement": "F: southern crabgrass, herbicidal effect grade", "setting": "[7]; three weeks after application", "result": "3 (Herbicidal rate of 40% or more and less than 70%)"}, {"measurement": "herbicidal effect on rice flat sedge (E)", "setting": "[8]; 320 g/ha", "result": "3 (Herbicidal rate of 40% or more and less than 70%)"}, {"measurement": "herbicidal effect on Chinese sprangletop (D)", "setting": "[9]; 320 g/ha", "result": "1 (Herbicidal rate of 5% or more and less than 20%)"}, {"measurement": "M: velvetleaf, herbicidal effect grade", "setting": "[10]; three weeks after application", "result": "2 (Herbicidal rate of 20% or more and less than 40%)"}, {"measurement": "herbicidal effect rating, C: oval-leafed pondweed", "setting": "[11]", "result": "0 (Herbicidal rate of 5% or less (almost no effect))"}, {"measurement": "I: wild oat, herbicidal effect grade", "setting": "[12]; three weeks after application", "result": "3 (Herbicidal rate of 40% or more and less than 70%)"}, {"measurement": "R: persian speedwell, herbicidal effect grade", "setting": "[13]; three weeks after application", "result": "5 (Herbicidal rate of 90% or more (almost completely withered))"}, {"measurement": "Herbicidal effect, B: Japanese bulrush", "setting": "[21]", "result": "0 (Herbicidal rate of 5% or less (almost no effect))"}, {"measurement": "K: Italian ryegrass, herbicidal effect grade", "setting": "[14]; three weeks after application", "result": "3 (Herbicidal rate of 40% or more and less than 70%)"}, {"measurement": "Herbicidal effect, C: oval-leafed pondweed", "setting": "[22]", "result": "0 (Herbicidal rate of 5% or less (almost no effect))"}, {"measurement": "G: green foxtail, herbicidal effect grade", "setting": "[15]; three weeks after application", "result": "4 (Herbicidal rate of 70% or more and less than 90%)"}, {"measurement": "P: chickweed, herbicidal effect grade", "setting": "[16]; three weeks after application", "result": "5 (Herbicidal rate of 90% or more (almost completely withered))"}, {"measurement": "herbicidal effect rating, A: late watergrass", "setting": "[17]", "result": "2 (Herbicidal rate of 20% or more and less than 40%)"}, {"measurement": "O: lambsquarters, herbicidal effect grade", "setting": "[18]; three weeks after application", "result": "2 (Herbicidal rate of 20% or more and less than 40%)"}, {"measurement": "H: barnyard grass, herbicidal effect grade", "setting": "[19]; three weeks after application", "result": "3 (Herbicidal rate of 40% or more and less than 70%)"}]}
